The text below walks through data of US10414764B2, “Substantially pure vemurafenib and its salts” (SHILPA MEDICARE LIMITED, priority 2014, dated 2019).

Where a name gives a salt, the structure may show the parent alone. Read-outs that look alike come from different tables or passages of the source.

The conditions of data set [1]: cited from earlier work; for Solubility in water: marketed/prior reported crystalline Form II, from EMEA scientific discussion of Zelboraf.
The nature of the next data set: Solubility in water. The format is physicochemical. Particulars: product as per the present invention.
The conditions of data set [2]: European assessment report of Zelboraf; low solubility and permeability; cited from earlier work.
Data set [3] is described as follows: Storage stability (morphology and physicochemical characteristics). As to conditions: Vemurafenib obtained as per the present process.

Regarding `CCCS(=O)(=O)Nc1ccc(F)c(C(=O)c2c[nH]c3ncc(-c4ccc(Cl)cc4)cc23)c1F` [Form-II, propane-1-sulfonic acid-{3-[5-(4-chlorophenyl)-1H-pyrrolo[2,3-b]pyridine-3-carbonyl]-2,4-difluoro-phenyl}-amide], the Solubility in water in data set [1] and in data set [1] (listed as Crystalline Vemurafenib (Form II)) was under 0.1 µg/mL each time.
As to `CCCS(=O)(=O)Nc1ccc(F)c(C(=O)c2c[nH]c3ncc(-c4ccc(Cl)cc4)cc23)c1F` [Form-SVM, propane-1-sulfonic acid-{3-[5-(4-chlorophenyl)-1H-pyrrolo[2,3-b]pyridine-3-carbonyl]-2,4-difluoro-phenyl}-amide], the Solubility in water in the data set “Solubility in water” was over 1 µg/mL. Also, in the data set “Solubility in water” (water), the solubility was over 1 µg/mL.
`CCCS(=O)(=O)Nc1ccc(F)c(C(=O)c2c[nH]c3ncc(-c4ccc(Cl)cc4)cc23)c1F` [Vemurafenib trifluoro methane sulfonic acid salt] displayed a Solubility in water in the data set “Solubility in water” of at least 1 µg/mL.
With `CCCS(=O)(=O)Nc1ccc(F)c(C(=O)c2c[nH]c3ncc(-c4ccc(Cl)cc4)cc23)c1F` [Vemurafenib, propane-1-sulfonic acid-{3-[5-(4-chlorophenyl)-1H-pyrrolo[2,3-b]pyridine-3-carbonyl]-2,4-difluoro-phenyl}-amide], the “Biopharmaceutics Classification System class” value in data set [2] is “Class IV”. In addition, the “Solubility in aqueous media” value in data set [1] (background description of the drug substance) is “practically insoluble”. In addition, the Solubility in water in data set [1] was under 0.1 µg/mL. Also, in data set [3], the “Stable to handle and store without significant change in morphology and physicochemical characteristics” value is on record as “more than 6 months”.
